Bridge positions count the residues as written; N and C are the ends. Square brackets hold non-standard residues; d marks the D form. Peptide text beside a SMILES is read from it. GABA = NCCCC(=O)O

Ki and EC50 data for 3 molecules are collected here from patent US20160354429A1, “Use of Melanocortins to Treat Insulin Sensitivity” (Ipsen Pharma S.A.S., priority 2007, published 2016).

One assay has as its target T1, hMC1-R (Homo sapiens, UniProt Q01726).
T1 construct: expressed in transfected cells
The assay can be described thus: Radioligand binding assay, hMC1-R. Particulars: competition with [125I]-NDP-α-MSH, CHO-K1 cell membranes.

Another assay has as its target T2, hMC4-R (Homo sapiens, UniProt P32245).
T2 construct: expressed in transfected cells
The assay can be described thus: Radioligand binding assay, hMC4-R. The conditions noted are these: competition with [125I]-NDP-α-MSH, CHO-K1 cell membranes.

Assay [1] addresses T3, hMC5-R (Homo sapiens, UniProt P33032).
T3 construct: expressed in transfected cells
The assay can be described thus: Radioligand binding assay, hMC5-R. The conditions noted are these: competition with [125I]-NDP-α-MSH, CHO-K1 cell membranes. Here is the method: Cellular membranes used for the in vitro receptor binding assays were obtained from transgenic CHO-K1 cells stably expressing hMC-R receptor subtypes 1, 3, 4 or 5. […] The pellets were resuspended in the same buffer and centrifuged at 50,000 g for 10 minutes at approximately 4° C. The washed pellets containing the cellular membranes were stored at approximately −80° C.
Filters were washed three times with 50 mM Tris-HCl at pH 7.4 at a temperature of approximately 0-4° C. and then assayed for radioactivity using a Packard Topcount® scintillation counter. Binding data were analyzed by computer-assisted non-linear regression analysis (XL fit; IDBS).

Another assay deals with T4, hMC3-R (Homo sapiens, UniProt P41968).
T4 construct: expressed in transfected cells
T4 sequence (P41968 whole entry): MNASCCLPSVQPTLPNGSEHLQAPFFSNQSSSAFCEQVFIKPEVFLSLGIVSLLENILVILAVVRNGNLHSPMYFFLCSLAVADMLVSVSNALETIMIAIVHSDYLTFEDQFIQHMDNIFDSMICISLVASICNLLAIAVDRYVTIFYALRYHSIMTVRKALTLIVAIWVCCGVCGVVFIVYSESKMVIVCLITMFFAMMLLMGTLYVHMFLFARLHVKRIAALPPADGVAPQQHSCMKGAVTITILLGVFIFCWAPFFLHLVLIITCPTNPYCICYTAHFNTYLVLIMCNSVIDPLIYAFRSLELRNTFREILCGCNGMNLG
The assay can be described thus: Radioligand binding assay, hMC3-R. Particulars: competition with [125I]-NDP-α-MSH, CHO-K1 cell membranes.

The target in assay [2] is T3, hMC5-R. Briefly: cyclic AMP bioassay, hMC5-R. In kind it is cell-based.
Description: Intracellular cyclic AMP (cAMP) levels were determined by an electrochemiluminescence (ECL) assay (Meso Scale Discovery®, Gaithersburg, Md.; referred to hereinafter as MSD). […] Transgenic CHO-K1 cells stably expressing hMC receptor subtypes 1, 3, 4 or 5 were dispensed at a density of approximately 7,000 cells/well in 384-well Multi-Array® plates (MSD) containing integrated carbon electrodes and coated with anti-cAMP antibody. Increasing concentrations of the test compounds were added and the cells were incubated for approximately 40 minutes at approximately 37° C. […] At the end of the second incubation period read buffer (Tris-buffered solution containing an ECL co-reactant and Triton X-100 at ph 7.8) was added and the cAMP levels in the cell lysates were immediately determined by ECL detection with a Sector Imager 6000 Reader® (MSD). Data were analyzed using a computer-assisted non-linear regression analysis (XL fit; IDBS) and reported as either an EC50 value or a Kb value.

T3 sequence (P33032 whole entry): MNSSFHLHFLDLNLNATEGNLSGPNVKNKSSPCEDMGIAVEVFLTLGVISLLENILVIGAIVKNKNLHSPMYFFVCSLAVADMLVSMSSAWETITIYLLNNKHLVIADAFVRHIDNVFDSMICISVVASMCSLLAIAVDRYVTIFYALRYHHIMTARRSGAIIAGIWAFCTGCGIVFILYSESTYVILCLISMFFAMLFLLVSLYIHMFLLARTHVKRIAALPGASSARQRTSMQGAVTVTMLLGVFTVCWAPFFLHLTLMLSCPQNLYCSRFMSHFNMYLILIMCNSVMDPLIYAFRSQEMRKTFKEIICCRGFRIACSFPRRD
T1 sequence (Q01726 whole entry): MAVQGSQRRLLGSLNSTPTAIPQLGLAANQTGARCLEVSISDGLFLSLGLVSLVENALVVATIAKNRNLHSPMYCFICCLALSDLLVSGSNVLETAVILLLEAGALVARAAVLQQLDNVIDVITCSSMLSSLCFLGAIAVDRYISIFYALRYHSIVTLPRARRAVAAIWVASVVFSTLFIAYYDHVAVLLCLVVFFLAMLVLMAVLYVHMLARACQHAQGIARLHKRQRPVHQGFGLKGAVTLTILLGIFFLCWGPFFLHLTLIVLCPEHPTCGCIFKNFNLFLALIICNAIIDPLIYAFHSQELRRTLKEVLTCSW
T2 sequence (P32245 whole entry): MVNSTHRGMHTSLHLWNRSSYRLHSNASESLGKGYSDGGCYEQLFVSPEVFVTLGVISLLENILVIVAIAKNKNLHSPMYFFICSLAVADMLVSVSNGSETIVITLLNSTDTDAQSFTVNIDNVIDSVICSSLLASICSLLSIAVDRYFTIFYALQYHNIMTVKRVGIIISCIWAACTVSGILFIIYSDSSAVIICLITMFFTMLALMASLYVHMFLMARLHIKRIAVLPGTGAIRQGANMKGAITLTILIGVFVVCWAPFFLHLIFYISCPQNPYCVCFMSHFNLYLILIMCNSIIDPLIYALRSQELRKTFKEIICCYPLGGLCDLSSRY

Broadly, the Ki is a measure of affinity in units of concentration, obtained from inhibition or displacement. Turning to `CCCC[C@H](NC(C)=O)C(=O)N[C@H]1CSSC[C@@H](C(N)=O)NC(=O)CCNC(=O)[C@H](Cc2c[nH]c3ccccc23)NC(=O)[C@H](CCCNC(=N)N)NC(=O)[C@@H](Cc2ccccc2)NC(=O)[C@H](Cc2c[nH]cn2)NC(=O)[C@@H](C)NC1=O` [Ac-Nle-c(Cys-D-Ala-His-D-Phe-Arg-Trp-β-Ala-Cys)-NH2], the Ki on hMC1-R amounted to 0.995 nM.
Turning to `CC(=O)N[C@@H](Cc1ccccc1)C(=O)N[C@H]1CSSC[C@@H](C(N)=O)NC(=O)CCCNC(=O)[C@H](Cc2c[nH]c3ccccc23)NC(=O)[C@H](CCCNC(=N)N)NC(=O)[C@@H](Cc2ccccc2)NC(=O)[C@H](Cc2c[nH]cn2)NC1=O` [Ac-Phe-c(Cys-His-D-Phe-Arg-Trp-Gaba-Cys)-NH2] (Ac-FCH[dF]RW[GABA]C-NH2; disulfide 2-8), the Ki on hMC4-R stood at 2.13 nM; at hMC5-R [1] it was 0.714 nM; on hMC1-R, 0.254 nM; at hMC3-R it was 18.5 nM.
A word on the EC50: it is the concentration that produces a half-maximal response. Higher therefore signals lower potency in that assay. Consider `CC(=O)N[C@@H](CCCNC(=N)N)C(=O)N[C@H]1CSSC(C)(C)[C@@H](C(N)=O)NC(=O)[C@H](Cc2c[nH]c3ccccc23)NC(=O)[C@H](CCCNC(=N)N)NC(=O)[C@@H](Cc2ccccc2)NC(=O)[C@H](Cc2c[nH]cn2)NC(=O)[C@@H](C)NC1=O` [Ac-Arg-c(Cys-D-Ala-His-D-Phe-Arg-Trp-Pen)-NH2], for which the EC50 at hMC5-R [2] was no less than 10000 nM.
